Measured values reported in US10538555B2, “Macrocyclic inhibitors of the PD-1/PD-L1 and CD80(B7-1)/PD-L1 protein/protein interactions” (BRISTOL-MYERS SQUIBB COMPANY, priority 2014, dated 2020).
Where a SMILES comes first, the peptide text is derived from it. Bridges are numbered along the chain shown (N, C = ends). [ ]: non-standard residue; d: D form. ξ: configuration not given here. Trp(1-CH2COOH) = N[C@@H](Cc1cn(CC(=O)O)c2ccccc12)C(=O)O; Morpholine(3S-CO,6,6-Me2) = CC1(C)CN[C@H](C(=O)O)CO1; Phe(3,4,5-F3) = N[C@@H](Cc1cc(F)c(F)c(F)c1)C(=O)O; NMePhe(4-F) = CN[C@@H](Cc1ccc(F)cc1)C(=O)O; Phe(4-F) = N[C@@H](Cc1ccc(F)cc1)C(=O)O; d(cisHyp) = O=C(O)[C@H]1C[C@@H](O)CN1; Bta = N[C@@H](Cc1csc2ccccc12)C(=O)O; Hyp = O=C(O)[C@@H]1C[C@@H](O)CN1; NMeF = CN[C@@H](Cc1ccccc1)C(=O)O; dHyp = O=C(O)[C@H]1C[C@H](O)CN1; NMeL = CN[C@@H](CC(C)C)C(=O)O; NMeNle = CCCC[C@H](NC)C(=O)O; NMeS = CN[C@@H](CO)C(=O)O; Pip = O=C(O)[C@@H]1CCCCN1; dPip = O=C(O)[C@H]1CCCCN1; hSer = N[C@@H](CCO)C(=O)O; NMeA = CN[C@@H](C)C(=O)O; Orn = NCCC[C@H](N)C(=O)O; Dab = NCC[C@H](N)C(=O)O; Abu = CC[C@H](N)C(=O)O; Dap = NC[C@H](N)C(=O)O; ξC = NC(CS)C(=O)O; Sar = CNCC(=O)O

Target: T1, Human PD-L1/PD-1 (Homo sapiens, UniProt Q9NZQ7)
T1 construct: TVMV protease cleavage site (C); made in house; host or cells: HEK293T cells
T1 sequence (Q9NZQ7 with tags, fused parts or gaps): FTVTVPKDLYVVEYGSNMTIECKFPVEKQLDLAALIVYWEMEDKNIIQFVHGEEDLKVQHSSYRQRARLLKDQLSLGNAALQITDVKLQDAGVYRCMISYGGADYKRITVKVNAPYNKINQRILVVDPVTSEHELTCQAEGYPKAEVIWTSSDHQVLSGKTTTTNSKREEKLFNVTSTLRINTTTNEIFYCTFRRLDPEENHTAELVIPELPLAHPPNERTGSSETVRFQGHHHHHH
Assay: HTRF Human PD-L1/PD-1 binding assay (PD-1-Ig/PD-L1-His)
Details: PD-L1-His 10 nM, PD-1-Ig 20 nM; class symbol; read-out: HTRF Human PD-L1/PD-1 Binding Assay IC50 Range
Outline: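 Competition of macrocyclic peptides for PD-1/PD-L1 binding measured by HTRF in dPBS containing 0.1% BSA and 0.05% Tween-20. Compound and PD-L1-His (10 nM final) incubated 15 min before PD-1-Ig (20 nM final) and a further 15 min.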

Structure (SMILES)	IC50
CCCC[C@H]1C(=O)N2CCC[C@@H]2C(=O)N[C@@H](CC(=O)O)C(=O)N[C@@H](C(C)C)C(=O)N(C)[C@@H](Cc2ccccc2)C(=O)N[C@@H](CCCN)C(=O)N2C[C@H](O)C[C@@H]2C(=O)N[C@@H](Cc2c[nH]c3ccccc23)C(=O)N[C@@H](Cc2ccc(O)cc2)C(=O)N[C@@H](CCOC)C(=O)N[C@H](C(=O)NCC(N)=O)CSCC(=O)N[C@@H](Cc2cc(F)c(F)c(F)c2)C(=O)N(C)[C@@H](Cc2ccccc2)C(=O)N1C [Example 10182] ({CH2CO}-[Phe(3,4,5-F3)][NMeF][NMeNle][dP]DV[NMeF][Orn][d(cisHyp)]WY[hSer](Me)CG-NH2; thioether N-13)	1 to 9.9 nM
CCCC[C@H]1C(=O)N(C)[C@@H](CCCC)C(=O)N[C@@H](C)C(=O)N[C@H](C(=O)NCC(N)=O)CSCC(=O)N[C@@H](Cc2ccc(O)cc2)C(=O)N2CC(C)(C)OC[C@H]2C(=O)N[C@@H](CC(N)=O)C(=O)N2CCC[C@H]2C(=O)N[C@@H](CN)C(=O)N[C@@H](CCC(N)=O)C(=O)N2C[C@H](O)C[C@H]2C(=O)N[C@@H](Cc2c[nH]c3ccccc23)C(=O)N[C@@H](CO)C(=O)N[C@@H](Cc2c[nH]c3ccccc23)C(=O)N1C [Example 1281] ({CH2CO}-Y[Morpholine(3S-CO,6,6-Me2)]NP[Dap]Q[Hyp]WSW[NMeNle][NMeNle]ACG-NH2; thioether N-14)	1 to 9.9 nM
CCCC[C@H]1C(=O)N2CCC[C@@H]2C(=O)N[C@@H](CC(=O)O)C(=O)N[C@@H](C)C(=O)N(C)[C@@H](Cc2ccccc2)C(=O)N[C@@H](Cc2ccc(O)cc2)C(=O)N2CCC[C@@H]2C(=O)N[C@@H](Cc2c[nH]c3ccccc23)C(=O)N[C@@H](Cc2ccc(O)cc2)C(=O)N[C@@H](CC(C)C)C(=O)N[C@H](C(=O)NCC(N)=O)CSCC(=O)N[C@@H](Cc2ccccc2)C(=O)N(C)[C@@H](Cc2ccccc2)C(=O)N1C [Example 10076] ({CH2CO}-F[NMeF][NMeNle][dP]DA[NMeF]Y[dP]WYLCG-NH2; thioether N-13)	10 to 99.9 nM
CCCC[C@H]1C(=O)N2C[C@H](O)C[C@@H]2C(=O)N[C@@H](CC(=O)O)C(=O)N[C@@H](C(C)C)C(=O)N(C)[C@@H](Cc2ccccc2)C(=O)N[C@@H](CCC(=O)O)C(=O)N2C[C@H](O)C[C@@H]2C(=O)N[C@@H](Cc2c[nH]c3ccccc23)C(=O)N[C@@H](Cc2ccc(O)cc2)C(=O)N[C@@H](CCCN)C(=O)N[C@H](C(=O)NCC(N)=O)CSCC(=O)N[C@@H](Cc2cc(F)c(F)c(F)c2)C(=O)N(C)[C@@H](Cc2ccc(F)cc2)C(=O)N1C [Example 10612] ({CH2CO}-[Phe(3,4,5-F3)][NMePhe(4-F)][NMeNle][d(cisHyp)]DV[NMeF]E[d(cisHyp)]WY[Orn]CG-NH2; thioether N-13)	1 to 9.9 nM
CCCC[C@H]1C(=O)N(C)[C@@H](CCCC)C(=O)N[C@@H](CO)C(=O)N[C@H](C(=O)NCC(N)=O)CSCC(=O)N[C@@H](Cc2ccc(OC)cc2)C(=O)N(C)[C@@H](C)C(=O)N[C@@H](CC(N)=O)C(=O)N2CCC[C@H]2C(=O)N[C@@H](CO)C(=O)N[C@@H](CCC(N)=O)C(=O)N2C[C@H](O)C[C@H]2C(=O)N[C@@H](Cc2c[nH]c3ccccc23)C(=O)N[C@@H](CO)C(=O)N[C@@H](Cc2c[nH]c3ccccc23)C(=O)N1C [Example 7138] ({CH2CO}-Y(Me)[NMeA]NPSQ[Hyp]WSW[NMeNle][NMeNle]SCG-NH2; thioether N-14)	1 to 9.9 nM
CCCC[C@H]1C(=O)N2CCC[C@@H]2C(=O)N[C@@H](CC(=O)O)C(=O)N[C@@H](C(C)C)C(=O)N(C)[C@@H](CC(C)C)C(=O)N[C@@H](Cc2ccc(O)cc2)C(=O)N2CCC[C@@H]2C(=O)N[C@@H](Cc2c[nH]c3ccccc23)C(=O)N[C@@H](Cc2ccc(O)cc2)C(=O)N[C@@H](CC(C)C)C(=O)N[C@H](C(=O)NCC(N)=O)CSCC(=O)N[C@@H](Cc2ccc(F)cc2)C(=O)N(C)[C@@H](Cc2ccccc2)C(=O)N1C [Example 9249] ({CH2CO}-[Phe(4-F)][NMeF][NMeNle][dP]DV[NMeL]Y[dP]WYLCG-NH2; thioether N-13)	100 to 990 nM
CCCC[C@H]1C(=O)N(C)[C@@H](CCCC)C(=O)N[C@@H](CCCNC(=N)N)C(=O)NC(C(=O)NCC(N)=O)CSCC(=O)N[C@@H](Cc2ccc(O)cc2)C(=O)N(C)[C@@H](C)C(=O)N[C@@H](CC(N)=O)C(=O)N2CCC[C@H]2C(=O)N[C@@H](CCO)C(=O)N[C@@H](CO)C(=O)N2C[C@H](O)C[C@H]2C(=O)N[C@@H](Cc2c[nH]c3ccccc23)C(=O)N[C@@H](CO)C(=O)N[C@@H](Cc2csc3ccccc23)C(=O)N1C (stereo partly drawn) [Example 10023] ({CH2CO}-Y[NMeA]NP[hSer]S[Hyp]WS[Bta][NMeNle][NMeNle]R[ξC]G-NH2; thioether N-14)	10 to 99.9 nM
CCCC[C@H]1C(=O)N(C)[C@@H](CCCC)C(=O)N[C@@H](CCCNC(=N)N)C(=O)N[C@H](C(=O)NCC(N)=O)CSCC(=O)N[C@@H](Cc2ccc(O)cc2)C(=O)N(C)[C@@H](C)C(=O)N[C@@H](CO)C(=O)N2CCC[C@H]2C(=O)N[C@@H](Cc2cnc[nH]2)C(=O)N[C@@H](CCC(N)=O)C(=O)N2C[C@H](O)C[C@H]2C(=O)N[C@@H](Cc2c[nH]c3ccccc23)C(=O)N[C@@H](CO)C(=O)N[C@@H](Cc2c[nH]c3ccccc23)C(=O)N1C [Example 5178] ({CH2CO}-Y[NMeA]SPHQ[Hyp]WSW[NMeNle][NMeNle]RCG-NH2; thioether N-14)	1 to 9.9 nM
CCCC[C@H]1C(=O)N(C)[C@@H](CCCC)C(=O)N[C@@H](CC(C)C)C(=O)N[C@H](C(=O)NCC(N)=O)CSCC(=O)N[C@@H](Cc2ccc(O)cc2)C(=O)N2CCCC[C@H]2C(=O)N[C@@H](CC(N)=O)C(=O)N2CCC[C@H]2C(=O)N[C@@H](CN)C(=O)N[C@@H](CCC(=O)O)C(=O)N2C[C@H](O)C[C@H]2C(=O)N[C@@H](Cc2c[nH]c3ccccc23)C(=O)N[C@@H](CCN)C(=O)N[C@@H](Cc2cn(CC(=O)O)c3ccccc23)C(=O)N1C [Example 1299] ({CH2CO}-Y[Pip]NP[Dap]E[Hyp]W[Dab][Trp(1-CH2COOH)][NMeNle][NMeNle]LCG-NH2; thioether N-14)	1 to 9.9 nM
CCCC[C@H]1C(=O)N(C)[C@@H](CO)C(=O)N[C@@H](CCC(=O)O)C(=O)N[C@H](C(=O)NCC(N)=O)CSCC(=O)N[C@@H](Cc2ccc(O)cc2)C(=O)N2CCCC[C@H]2C(=O)N[C@@H](CC(=O)O)C(=O)N2CCC[C@H]2C(=O)N[C@@H](CN)C(=O)N[C@@H](CCC(=O)O)C(=O)N2C[C@H](O)C[C@H]2C(=O)N[C@@H](Cc2c[nH]c3ccccc23)C(=O)N[C@@H](CO)C(=O)N[C@@H](Cc2c[nH]c3ccccc23)C(=O)N1C [Example 1309] ({CH2CO}-Y[Pip]DP[Dap]E[Hyp]WSW[NMeNle][NMeS]ECG-NH2; thioether N-14)	10 to 99.9 nM
CCCC[C@H]1C(=O)N(C)[C@@H](CCCC)C(=O)N[C@@H](CC(C)C)C(=O)N[C@H](C(=O)NCC(N)=O)CSCC(=O)N[C@@H](Cc2ccc(O)cc2)C(=O)N(C)[C@@H](C)C(=O)N[C@@H](CC(=O)O)C(=O)N2CCC[C@H]2C(=O)N[C@@H](Cc2cnc[nH]2)C(=O)N[C@@H](CCC(=O)O)C(=O)N2C[C@H](O)C[C@H]2C(=O)N[C@@H](Cc2c[nH]c3ccccc23)C(=O)N[C@@H](CCN)C(=O)N[C@@H](Cc2cn(CC(=O)O)c3ccccc23)C(=O)N1C [Example 6141] ({CH2CO}-Y[NMeA]DPHE[Hyp]W[Dab][Trp(1-CH2COOH)][NMeNle][NMeNle]LCG-NH2; thioether N-14)	1 to 9.9 nM
CCCC[C@H]1C(=O)N2CCC[C@@H]2C(=O)N[C@@H](CO)C(=O)N[C@@H](CC)C(=O)N(C)[C@@H](Cc2ccccc2)C(=O)N[C@@H](Cc2ccc(O)cc2)C(=O)N2CCCC[C@@H]2C(=O)N[C@@H](Cc2c[nH]c3ccccc23)C(=O)N[C@@H](Cc2ccc(O)cc2)C(=O)N[C@@H](CC(C)C)C(=O)N[C@H](C(=O)NCC(N)=O)CSCC(=O)N[C@@H](Cc2ccccc2)C(=O)N(C)[C@@H](Cc2ccccc2)C(=O)N1C [Example 10060] ({CH2CO}-F[NMeF][NMeNle][dP]S[Abu][NMeF]Y[dPip]WYLCG-NH2; thioether N-13)	10 to 99.9 nM
CCCC[C@H]1C(=O)N(C)[C@@H](CCCC)C(=O)N[C@@H](C)C(=O)N[C@H](C(=O)NCC(N)=O)CSCC(=O)N[C@@H](Cc2ccc(O)cc2)C(=O)N(C)[C@@H](C)C(=O)N[C@@H](CC(=O)O)C(=O)N2CCC[C@H]2C(=O)N[C@@H](Cc2cnc[nH]2)C(=O)N[C@@H](CCC(N)=O)C(=O)N2C[C@H](O)C[C@H]2C(=O)N[C@@H](Cc2c[nH]c3ccccc23)C(=O)N[C@@H](CCN)C(=O)N[C@@H](Cc2cn(CC(=O)O)c3ccccc23)C(=O)N1C [Example 6158] ({CH2CO}-Y[NMeA]DPHQ[Hyp]W[Dab][Trp(1-CH2COOH)][NMeNle][NMeNle]ACG-NH2; thioether N-14)	1 to 9.9 nM
CCCC[C@H]1C(=O)N2C[C@@H](O)C[C@@H]2C(=O)N[C@@H](CC(=O)O)C(=O)N[C@@H](C)C(=O)N(C)[C@@H](Cc2ccccc2)C(=O)N[C@@H](Cc2ccc(O)cc2)C(=O)N(C)CC(=O)N[C@@H](Cc2c[nH]c3ccccc23)C(=O)N[C@@H](Cc2ccc(O)cc2)C(=O)N[C@@H](CC(C)C)C(=O)N[C@H](C(=O)NCC(N)=O)CSCC(=O)N[C@@H](Cc2ccccc2)C(=O)N(C)[C@@H](Cc2ccccc2)C(=O)N1C [Example 10086] ({CH2CO}-F[NMeF][NMeNle][dHyp]DA[NMeF]Y[Sar]WYLCG-NH2; thioether N-13)	10 to 99.9 nM
CCCC[C@H]1C(=O)N[C@@H](CCC(N)=O)C(=O)N2CCC[C@@H]2C(=O)N[C@@H](Cc2c[nH]c3ccccc23)C(=O)N[C@@H](Cc2ccc(O)cc2)C(=O)N[C@@H](CCCN)C(=O)N[C@H](C(=O)NCC(N)=O)CSCC(=O)N[C@@H](Cc2ccc(F)cc2)C(=O)N(C)[C@@H](Cc2ccccc2)C(=O)N(C)[C@@H](CCCC)C(=O)N2CCC[C@@H]2C(=O)N[C@@H](CC(=O)O)C(=O)N[C@@H](C(C)C)C(=O)N1C [Example 9217] ({CH2CO}-[Phe(4-F)][NMeF][NMeNle][dP]DV[NMeNle]Q[dP]WY[Orn]CG-NH2; thioether N-13)	100 to 990 nM
